Where two headings read alike, the source gives them in different places.
Key:
[1] = molecular target: T1, HDAC3 (Homo sapiens, UniProt O15379); experiment: In vitro HDAC isoform inhibition, purified recombinant HDAC3; type: biochemical; conditions: purified recombinant protein; ± margin of error of 95% confidence interval; read-out: IC50 HDAC inhibition activity in vitro, HDAC 3
T1 construct: purchased PBS Bioscience [sic] (San Diego, CA); host or cells: Sf9 insect cells / baculovirus
Description: In vitro HDAC enzyme inhibition assays utilized HeLa cell extract for pan-HDACs with the substrate Fluor-Lys following the manufacturer’s protocol (BIOMOL/ENZO, Plymouth Meeting, PA). For isoform assays, purified HDAC1, HDAC3, and HDAC6 recombinant proteins produced by expressing epitope-tagged full-length proteins in the sf9 baculovirus expression vector system were purchased from PBS Bioscience (San Diego, CA). […] The reaction commenced with the addition of HDAC substrate at room temperature and proceeded for 30 minutes. Termination of the reaction was achieved by adding 50 μL of Fluor de Lys (TM) Assay Developer. The fluorophore was excited at 360 nm and emitted light at 460 nm. Relative fluorescence was measured using a FlexStation II plate reader (Molecular Devices, Sunnyvale, CA).

[2] = molecular target: HDAC4 (Homo sapiens, UniProt P56524); experiment: HDAC4 activity inhibition (data not shown); type: biochemical; conditions: read-out: IC50 class IIa HDAC4 inhibition
[3] = tested on: MDA-MB-231 (TNB) cells; experiment: Cell growth inhibition (CCK8 cytotoxicity assay), MDA-MB-231; type: cell-based; conditions: 48 h treatment, read-out: Average EC50 ± SD, cell growth inhibition
[4] = tested on: HCC-1937 (TNB) cells; experiment: Cell growth inhibition (CCK8 cytotoxicity assay), HCC-1937; type: cell-based; conditions: 48 h treatment, read-out: Average EC50 ± SD, cell growth inhibition
[5] = tested on: ER+ BC cells (MCF-7 and T47D); experiment: Cell growth inhibition, ER+ breast cancer cells stated together; type: cell-based
Description: Prism-GraphPad software was used to analyze data.

[6] = tested on: MCF10A cells; experiment: Radiation clonogenic survival assay, MCF10A; type: cell-based; conditions: 0.3 μM for 24 h then graded γ-radiation, control 2.5 Gy
Procedure: Logarithmically growing cells were treated with vehicle (0.1% Dimethyl Sulfoxide) or SP-1-303 (0.3 μM) for 24 h followed by sham or γ-radiation using a Mark-30 irradiator with a 137Cs source at a fixed dose rate of 2.71 Gy/min. Cells were exposed to graded doses at room temperature. After 10–14 days, cells were fixed and stained with crystal violet, and colonies were counted. The surviving fractions of treated cells were normalized using the plating efficiencies of untreated controls. Radiation survival curves were generated by fitting to the single-hit, multitarget model.

[7] = Plasma pharmacokinetics after intravenous administration; type: in vivo, Sprague-Dawley rats; conditions: 20 mg/kg IV
Description: A commercial vendor (Medicilon, Inc.) performed the pharmacokinetic studies. Male Sprague-Dawley Rats (n = 8) were received from Sino-British SIPPR/BK Lab Animal Ltd., Shanghai, and 6 animals were placed on study. All studies were approved by the Institutional Animal Care and Use Committee (Protocol #: 19098–17002) of Medicilon Preclinical Research-Shanghai LLC, Pudong Shanghai 201200, P.R. China. The animals were allowed to acclimatize for at least 5 d before beginning the study. The procedure was performed under general anesthesia with 3–5% isoflurane for blood collections via jugular vein. All efforts were made to minimizing suffering and least stressful. The compound was dissolved in 5% DMSO + 40% PEG400 + 55% PBS to yield a final concentration of 2 mg/ml. The tolerated dose (20 mg/Kg) was administered via intravenous (IV) in rats. After IV administration, blood samples were collected via jugular vein at various time points (0, 1, 2, 4, 6, and 8 h) under general anesthesia with 3–5% isoflurane. Samples were then placed into tubes containing K2EDTA and centrifuged at 8,000 rpm for 6 min to obtain plasma. The resulting plasma were analyzed by LCMS. Following completion of the study, all surviving animals were euthanized with CO2, followed by cervical dislocation. Pharmacokinetic analysis was determined using a non-compartmental module of WinNonlin Professional 5.2. The maximum measured plasma concentrations (Cmax) and the time of Cmax (tmax) were derived directly from the data. The area under the curve (AUC) was calculated using the log-linear trapezoidal method rule up to the last data point and was extrapolated to infinity with the following formula: Clast/β, where Clast is the last measured concentration time point. The elimination half-life was calculated with the equation t1/2 = 0.693/β, where β is the terminal rate constant. The clearance (Cl = dose/AUC) rate was also evaluated.

[8] = tested on: acetylated histone 3 lysine 9 (H3K9ac); experiment: Western blot, acetylation of histone H3 lysine 9; type: cell-based; conditions: MCF7 and MDA-MB-231; 1 μM; within 0.5 h
Description: Following treatment of cells with SP-1-303 over a time course, total or nuclear proteins were extracted and analyzed on 4–20% trisglycine gradient sodium dodecyl sulfate polyacrylamide gel electrophoresis (SDS-PAGE). Subsequently, membranes were probed with antibodies targeting specific proteins in accordance with the manufacturers’ protocols, including ATM (ab78), p-BRCA1 (ab90528), BRCA1 (ab191042), p-p53/S15 (ab1431), acetylated H3K9 (ab12179) from Abcam, as well as p-ATM (# 5883) and p53 (#9282) from Cell Signaling, α-tubulin (T6793) and β-actin (A3854) from Sigma-Aldrich, ER-α (cat# MA1-80216, Invitrogen) and HDAC2 (BML-SA402. Enzo). Protein images were captured using ECL Prime Western Blotting Detection Reagents (Cat#. RPN2232, Amersham) and the Amersham Imager 600. For immunofluorescent analysis, formalin fixed cells were permeabilized with 0.1% Triton X-100 in TBS for 10 minutes at room temperature, followed by blocking with 1% Blocker BSA for 15 minutes at room temperature. Cells were then probed with a phospho-ATM monoclonal antibody (MA5-15185) and DyLight 488 goat anti-mouse IgG secondary antibody at room temperature. Actin was stained with DyLight 554 phalloidin, while nuclei were stained with 4’,6-diamidino-2-phenylindole dye (DAPI). Images were captured using a Nikon Epi Fluorescent microscopy.

T1 sequence (O15379 whole entry, canonical isoform): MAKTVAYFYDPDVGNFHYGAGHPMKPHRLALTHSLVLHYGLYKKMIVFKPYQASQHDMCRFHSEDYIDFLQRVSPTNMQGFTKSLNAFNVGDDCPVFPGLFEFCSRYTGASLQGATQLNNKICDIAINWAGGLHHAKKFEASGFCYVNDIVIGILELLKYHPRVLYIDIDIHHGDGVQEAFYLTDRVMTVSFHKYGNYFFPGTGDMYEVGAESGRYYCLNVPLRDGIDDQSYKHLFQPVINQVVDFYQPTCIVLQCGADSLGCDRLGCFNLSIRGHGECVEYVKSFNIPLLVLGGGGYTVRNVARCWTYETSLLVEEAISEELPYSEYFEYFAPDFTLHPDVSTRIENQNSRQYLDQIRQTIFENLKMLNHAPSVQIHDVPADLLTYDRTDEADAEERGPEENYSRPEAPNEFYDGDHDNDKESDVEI
T1 sequence (Q9Y618 395-489 partner limits assumed): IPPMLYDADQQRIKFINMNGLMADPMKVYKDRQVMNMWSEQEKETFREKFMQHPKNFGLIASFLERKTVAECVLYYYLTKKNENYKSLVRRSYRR
HDAC4, sequence (P56524 whole entry, species assumed): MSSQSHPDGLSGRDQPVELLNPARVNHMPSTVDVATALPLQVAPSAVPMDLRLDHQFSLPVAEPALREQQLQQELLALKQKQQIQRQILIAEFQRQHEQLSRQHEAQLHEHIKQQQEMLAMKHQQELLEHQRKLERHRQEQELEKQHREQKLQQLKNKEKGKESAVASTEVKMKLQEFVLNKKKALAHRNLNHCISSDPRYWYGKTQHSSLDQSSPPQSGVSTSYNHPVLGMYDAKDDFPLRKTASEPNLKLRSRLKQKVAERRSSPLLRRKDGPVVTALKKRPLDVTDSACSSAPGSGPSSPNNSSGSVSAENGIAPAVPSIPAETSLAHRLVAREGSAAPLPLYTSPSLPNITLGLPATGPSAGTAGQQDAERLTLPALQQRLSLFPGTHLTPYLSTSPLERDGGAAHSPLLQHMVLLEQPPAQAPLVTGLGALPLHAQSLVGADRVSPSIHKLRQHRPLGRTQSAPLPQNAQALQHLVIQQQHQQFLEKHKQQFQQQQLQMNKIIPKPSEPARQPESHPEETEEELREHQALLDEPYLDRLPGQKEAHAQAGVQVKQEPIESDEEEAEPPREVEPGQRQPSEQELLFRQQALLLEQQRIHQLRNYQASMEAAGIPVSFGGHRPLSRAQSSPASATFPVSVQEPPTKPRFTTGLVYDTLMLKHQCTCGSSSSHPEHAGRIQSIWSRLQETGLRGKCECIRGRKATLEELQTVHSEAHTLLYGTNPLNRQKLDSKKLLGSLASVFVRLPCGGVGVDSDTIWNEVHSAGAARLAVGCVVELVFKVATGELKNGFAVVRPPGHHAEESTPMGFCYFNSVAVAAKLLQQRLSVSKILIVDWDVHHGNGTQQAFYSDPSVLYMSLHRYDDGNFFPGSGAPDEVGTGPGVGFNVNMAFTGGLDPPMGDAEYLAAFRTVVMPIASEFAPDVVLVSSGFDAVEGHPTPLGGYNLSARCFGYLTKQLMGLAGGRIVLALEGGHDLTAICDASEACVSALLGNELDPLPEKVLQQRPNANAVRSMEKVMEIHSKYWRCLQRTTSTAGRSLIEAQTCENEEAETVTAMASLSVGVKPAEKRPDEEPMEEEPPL

For `Cc1[nH]c2ccccc2c1C1=C(c2c(C)[nH]c3ccccc23)C(=O)N(CCCCCCC(=O)NO)C1=O` [SP-1-303], the IC50 [1] was 0.014 ± 0.002 µM, the IC50 [2] was > 20 µM and the EC50 [3] was 1.22 ± 0.243 µM. It also gave an EC50 ([3]; Homo sapiens, MDA-MB-231, 48 h) of 1.2 µM, an EC50 [4] of 2.48 µM and an EC50 ([4]; Homo sapiens, HCC1937, 48 h) of 2.5 µM. The “inhibition of ER+ BC cell growth compared to ER- TNBC cell growth” value [5] was 4-8 fold, the “potency in ER+ cell lines relative to SAHA” value ([5]; more potent than SAHA) was 10 fold and the EC50 ([5]; range over MCF-7 and T47D cells, read-out: effective growth inhibition concentrations (EC50)) was 0.32 to 0.34 µM. For the same compound, the “D0, radiation clonogenic survival” value [6] was 2.4 Gy, the Tmax ([7]; male, Sprague-Dawley, plasma, rat, mean value, read-out: tmax, time to reach maximum plasma concentration) was 4.98 min and the half-life ([7]; male, Sprague-Dawley, plasma, rat, read-out: t1/2, elimination half-life (converted)) was 75.6 min. For the same compound, the “compound remaining in plasma at 4 h” value ([7]; rat plasma, 4 h) was 1%, the “AUC, area under the curve” value ([7]; rat) was 5227.55 ng/ml x h and the “acetylation of histone H3 lysine 9 (H3K9)” value [8] was “significantly enhanced”.

Reference: PMC11249239 (PLOS ONE, 2024)
